Laboratory results as given in PMC12621367, “Salvianolic acid C inhibits methane emissions in dairy cows by targeting MCR and reshaping the rumen microbial community” (Journal of Animal Science and Biotechnology, 2025).

Target: T1, Methyl-coenzyme M reductase (MCR)
T1 construct: gene mcrA; with McrB and McrG (β and γ subunits)
Assay: MCR activity inhibition with a microbial MCR ELISA kit, dose-response, OD […] nm
Format: biochemical, Methanothermobacter marburgensis

O=C(/C=C/c1ccc(O)c2oc(-c3ccc(O)c(O)c3)cc12)O[C@H](Cc1ccc(O)c(O)c1)C(=O)O [SAC, Salvianolic acid C]
IC50: 692 µM
